# Measurements from US11725010B2, “Polyheterocyclic compounds as METTL3 inhibitors” (Storm Therapeutics Limited, priority 2019, dated 2023).
# Like-named read-outs stand apart in the source and are kept apart here.
# How the values were obtained:
# [1] = target: METTL3/14 (Homo sapiens (Human), UniProt Q86U44)
# [2] = test system: Caov-3 cells; experiment: Caov3 CTG proliferation assay; assay type: cell-based; settings: Homo sapiens
# Experimental: CTG Assay (Caov3 Cell Line)
# Upon treatment, Coav-3 cells were incubated for 10 min at RT with the CellTiter-Glo reagent (G7571, Promega). Measurement of the luminescence signal was performed on a microplate reader (Ensight, PerkinElmer).
# Caov3 CTG Assay—Proliferation Assay
# [3] = Caov-3, treated for 120 hours, CellTiter-Glo luminescence, read-out: Caov3 cells IC50
# METTL3/14, sequence (Q86U44 whole entry): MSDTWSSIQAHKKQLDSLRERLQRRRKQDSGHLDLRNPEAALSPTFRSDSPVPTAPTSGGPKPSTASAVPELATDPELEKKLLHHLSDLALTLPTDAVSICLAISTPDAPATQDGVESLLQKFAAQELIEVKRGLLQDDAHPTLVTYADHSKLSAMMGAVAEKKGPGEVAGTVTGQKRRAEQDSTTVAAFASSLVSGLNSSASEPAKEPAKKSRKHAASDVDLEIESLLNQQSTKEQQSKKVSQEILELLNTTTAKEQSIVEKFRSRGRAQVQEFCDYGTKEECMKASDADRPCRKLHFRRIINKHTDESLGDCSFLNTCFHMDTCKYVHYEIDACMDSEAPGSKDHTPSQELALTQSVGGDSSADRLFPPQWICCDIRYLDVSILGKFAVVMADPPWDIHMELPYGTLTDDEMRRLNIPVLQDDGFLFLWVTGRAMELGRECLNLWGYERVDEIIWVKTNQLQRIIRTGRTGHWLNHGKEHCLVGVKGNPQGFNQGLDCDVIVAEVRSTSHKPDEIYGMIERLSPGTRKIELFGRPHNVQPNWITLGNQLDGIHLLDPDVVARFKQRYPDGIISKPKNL
# METTL3/14, sequence (Q9HCE5 whole entry partner): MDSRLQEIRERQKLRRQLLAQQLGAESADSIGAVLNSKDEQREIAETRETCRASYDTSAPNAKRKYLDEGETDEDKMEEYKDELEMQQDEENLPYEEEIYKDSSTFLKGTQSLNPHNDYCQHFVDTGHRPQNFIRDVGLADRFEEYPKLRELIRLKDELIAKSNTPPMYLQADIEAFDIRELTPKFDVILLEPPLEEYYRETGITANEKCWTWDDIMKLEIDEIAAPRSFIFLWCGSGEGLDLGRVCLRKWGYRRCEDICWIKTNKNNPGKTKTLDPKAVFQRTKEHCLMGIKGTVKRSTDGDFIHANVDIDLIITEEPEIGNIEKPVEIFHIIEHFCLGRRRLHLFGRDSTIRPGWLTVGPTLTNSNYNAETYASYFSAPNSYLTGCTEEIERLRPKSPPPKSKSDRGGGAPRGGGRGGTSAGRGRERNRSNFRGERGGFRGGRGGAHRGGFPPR
Structure (SMILES),IC50 [1] [nM],"IC50 [2, 3] [nM]",further results
"c1cc2cc(-c3cn(Cc4ccc5cc(CNCC6CCC6)[nH]c5c4)nn3)cnc2[nH]1 [Example 138, (cyclobutylmethyl)({6-[(4-{1H-pyrrolo[2,3-b]pyridin-5-yl}-1H-1,2,3-triazol-1-yl)methyl]-1H-indol-2-yl}methyl)amine]",6.1,–,–
"c1cc(-c2cn(Cc3ccc4cc(CNCC5CCC5)[nH]c4c3)nn2)c2cncn2c1 [Example 135, (cyclobutylmethyl)({6-[(4-{imidazo[1,5-a]pyridin-8-yl}-1H-1,2,3-triazol-1-yl)methyl]-1H-indol-2-yl}methyl)amine]",–,269,–
"O[C@@H]1CCC[C@@H]1NCc1cc2ccc(Cn3cc(-c4cccc5[nH]ncc45)nn3)cc2[nH]1 [Compound 54, (1R,2S)-2-[[6-[[4-(1H-indazol-4-yl)triazol-1-yl]methyl]-1H-indol-2-yl]methylamino]cyclopentanol]",–,837,–
"COc1cnc(C#N)c(-c2cn(Cc3ccc4cc(CNCC56CC(C5)C6)[nH]c4c3)nn2)c1 [Example 148, 3-[1-({2-[({(Bicyclo [1.1.1]pent-1-yl)methyl}amino)methyl]-1H-indol-6-yl}methyl)-1H-1,2,3-triazol-4-yl]-5-methoxy-2-pyridine-carbonitrile]",< 6.1,–,–
c1cc(-c2nsc(Cc3ccc4cc(CNCC5CCC5)[nH]c4c3)n2)c2cn[nH]c2c1 [Example 65],16100,–,–
"c1cc2cc(-c3cn(Cc4ccc5cc(CNCC6CCC6)[nH]c5c4)cn3)cnc2[nH]1 [Example 134, (cyclobutylmethyl)({6-[(4-{1H-pyrrolo[2,3-b]pyridin-5-yl}-1H-imidazol-1-yl)methyl]-1H-indol-2-yl}methyl)amine]",6.1,–,–
"c1cc(-c2cn(Cc3ccc4cc(CNCC5CCC5)[nH]c4c3)cn2)c2cn[nH]c2c1 [Example 64, N-(cyclobutylmethyl)-1-[6-[[4-(1H-indazol-4-yl)imidazol-1-yl]methyl]-1H-indol-2-yl]methanamine]",–,922,–
"O=C(NCc1cnc2cc(CNCC3CCC3)[nH]c2c1)c1cc(=O)n2ccccc2n1 [Example 49, N-[[2-[(cyclobutylmethylamino)methyl]-1H-pyrrolo[3,2-b]pyridin-6-yl]methyl]-4-oxo-pyrido[1,2-a]pyrimidine-2-carboxamide]",–,–,"IC50 ([2]; Caov-3, 120 h, read-out: Caov3 cells IC50 nM): 1060 nM"
"O=C(NCc1ccc2cc(CNCC3(O)CCC3)[nH]c2c1)c1cc(=O)n2ccccc2n1 [Compound 4, N-[[2-[[(1-hydroxycyclobutyl)methylamino]methyl]-1H-indol-6-yl]methyl]-4-oxo-pyrido[1,2-a]pyrimidine-2-carboxamide]",6.1,–,–
"O=C(NCc1ccc2cc(CNC3CCCCC3)[nH]c2c1)c1cc(=O)n2ccccc2n1 [Compound 30, N-[[2-[(cyclohexylamino)methyl]-1H-indol-6-yl]methyl]-4-oxo-pyrido[1,2-a]pyrimidine-2-carboxamide]",6.1,–,–
"CC1(C)CCN(Cc2cc3ccc(CNC(=O)c4cc(=O)n5ccccc5n4)cc3[nH]2)CC1 [Example 1, N-({2-[(4,4-dimethylpiperidin-1-yl)methyl]-1H-indol-6-yl}methyl)-4-oxo-4H-pyrido[1,2-a]pyrimidine-2-carboxamide]",–,260,–
"O=C(NCc1ccc2cc(CNCC3CC(F)(F)C3)[nH]c2c1)c1cc(=O)n2ccccc2n1 [Compound 3, N-[[2-[[(3,3-difluorocyclobutyl)methylamino]methyl]-1H-indol-6-yl]methyl]-4-oxo-pyrido[1,2-a]pyrimidine-2-carboxamide]",6.1,–,–
"O=C(NCc1ccc2cc(CN3CC4CCC3CC4)[nH]c2c1)c1cc(=O)n2ccccc2n1 [Compound 21, N-[[2-(2-azabicyclo[2.2.2]octan-2-ylmethyl)-1H-indol-6-yl]methyl]-4-oxo-pyrido[1,2-a]pyrimidine-2-carboxamide]",–,746,–
"O=C(NCc1ccc2cc(CNCC3(O)CCCCC3)[nH]c2c1)c1cc(=O)n2ccccc2n1 [Compound 25, N-[[2-[[(1-hydroxycyclohexyl)methylamino]methyl]-1H-indol-6-yl]methyl]-4-oxo-pyrido[1,2-a]pyrimidine-2-carboxamide]",–,732,–
